# Source: EP3009422A1, “Photo-switchable sulfonylureas and their uses” (Ludwig-Maximilians-Universität München, priority 2014, dated 2016)
# Columns and labels:
# Epac2A = experiment: Epac2-camps FRET imaging in HEK293t cells; format: cell-based; conditions: HEK293t cells expressing full length Epac2-camps; JB253 as cis-JB253 (excitation 440 nm)
# Description: For EPAC2 imaging, HEK293t were transfected with the full length construct for […] containing the cAMP and sulfonylurea binding domains (obtained from Prof. […] Excitation was delivered at 440 nm and emitted signals captured using […] filters. FRET was calculated as the ratio of Cerulean (CFP):Venus (YFP) fluorescence. Signals were normalized using R/R0 where R is the ratio at a given timepoint and R0 is the minimum ratio.
# isolated murine islets = experiment: Insulin secretion from isolated islets (static incubation, radioimmunoassay); format: cell-based, mouse
# Description: Insulin secretion was measured from 6 islets per well, incubated at 37 °C for 30 min in 0.5 ml of Krebs-HEPES-bicarbonate (KHB) solution (containing in mM: 130 NaCl, 3.6 KCl, 1.5 CaCl2, 0.5 MgSO4, 0.5 NaH2PO4, 2 NaHCO3, 10 HEPES, and 0.1 % (wt/vol) BSA, pH 7.4) containing the indicated glucose concentration and tolbutamide (100 µM), glimeperide (50 µM), diazoxide (250 µM) and JB253 (50 µM). Illumination (λ = 405 ± 20 nm and 485 ± 6 nm) was performed using a Fluostar Optima microplate reader (BMG Labtech) set to deliver 30 s of light every 2 min to the designated wells. Insulin concentrations were determined in duplicate using specific radioimmunoassay (EMD Millipore).
structure (smiles),measurement,setting,value
"CCN(CC)c1ccc(/N=N/c2ccc(S(=O)(=O)NC(=O)NC3CCCCC3)cc2)cc1 [JB253, (E)-N-(cyclohexylcarbamoyl)-4-((4-(diethylamino)phenyl)diazenyl)benzenesulfonamide]",ΔR/R0 (decrease in FRET),Epac2A,0.064 AU
same,insulin secreted following illumination,"isolated murine islets; 50 µM JB253, 5 mM glucose, 405 nm or 485 nm, 30 min",4-8 fold
same,insulin release in the dark versus control (5 mM glucose),"isolated murine islets; 50 µM JB253, dark, 30 min",similar
same,stimulation of insulin secretion compared with glimepiride,"isolated murine islets; 485 nm light, JB253 50 µM, glimepiride 50 µM",equipotent to glimepiride
